From BigSolDB 2.1

COc1ccc(C=O)cc1O
solubility (mole fraction)
Conditions | in ethanol | in ethyl acetate | in formic acid | in isobutanol | in isobutyl acetate | in isopropanol | in methanol | in methyl acetate | in n-butanol | in n-propanol
278.15 K | 0.0125 | 0.0203 | 0.0432 | 0.0086 | 0.015 | 0.0072 | 0.0156 | 0.0382 | 0.012 | 0.0186
283.15 K | 0.0153 | 0.0246 | 0.0486 | 0.0098 | 0.0165 | 0.0092 | 0.0188 | 0.0425 | 0.0149 | 0.0209
288.15 K | 0.0184 | 0.029 | 0.0571 | 0.0161 | 0.0184 | 0.0118 | 0.0231 | 0.0536 | 0.017 | 0.0242
293.15 K | 0.0227 | 0.0342 | 0.068 | 0.0192 | 0.0216 | 0.0149 | 0.0291 | 0.0633 | 0.0219 | 0.0284
298.15 K | 0.0279 | 0.0401 | 0.0832 | 0.0223 | 0.025 | 0.0186 | 0.0362 | 0.074 | 0.0253 | 0.0331
303.15 K | 0.0338 | 0.0478 | 0.101 | 0.0271 | 0.0305 | 0.0259 | 0.0445 | 0.0866 | 0.0352 | 0.04
308.15 K | 0.0429 | 0.0559 | 0.115 | 0.0338 | 0.034 | 0.0296 | 0.059 | 0.104 | 0.0445 | 0.0455
313.15 K | 0.0547 | 0.0655 | 0.137 | 0.042 | 0.0408 | 0.0386 | 0.0836 | 0.121 | 0.0542 | 0.0582
318.15 K | 0.0695 | 0.0806 | 0.165 | 0.0499 | 0.0509 | 0.0576 | 0.134 | 0.147 | 0.0641 | 0.0751
